# How the values were obtained:
# [1] = biological target: laccase from Trametes versicolor; settings: read-out: Laccase inhibition, Ki; cited from earlier work
# [2] = tested on: Cerrena unicolor strain no. 139; experiment: In vitro antifungal activity, mycelial growth inhibition on PDA medium; format: cell-based; settings: for inhibition of growth at 50 µg/mL / inhibition at 50 µg/mL / IC50: Cerrena unicolor, NO.139; for inhibition of growth at 50 µg/mL: read-out: fungal growth inhibition, C. unicolor; for inhibition at 50 µg/mL: fungicidal profile, read-out: C. unicolor inhibition; for IC50: log-logistic model, 0–50 µg/mL range, read-out: IC50 against Cerrena unicolor (Cu)
# Procedure, shortened: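 Compounds in PDA plates (ethanol or DMSO co-solvent, 0.1–1.0% v/v), screened at 50 µg/mL, selected ones at 0–50 µg/mL; 5 mm mycelial plug placed centrally, 22 °C dark until co-solvent control covered (3 d B. cinerea, S. sclerotiorum; 7 d C. unicolor). IC50 from nonlinear dose–response fit, only where growth fell >50%.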
# [3] = tested on: Sclerotinia sclerotiorum strain FSc10; experiment: as above; format: cell-based; settings: for inhibition of growth at 50 µg/mL / fungal growth inhibition, S. sclerotiorum: screening at basal 50 µg/mL, PDA medium, mean ± SD of three determinations; for inhibition of growth at 50 µg/mL: read-out: fungal growth inhibition, S. sclerotiorum; for IC50: log-logistic model, 0–50 µg/mL range, read-out: IC50 against Sclerotinia sclerotiorum (Ss)
# [4] = tested on: sunflower (Helianthus annuus L.) seeds; experiment: Phytotest 1: phytotoxicity, seed germination and root growth; format: in vivo; settings: 50 µg/mL; versus water–ethanol 0.5% (v/v) control; <90% inhibition, 90–110% no effect, >110% stimulation
# Excerpt: In the experiments with plants, two aspects were taken under consideration: (1) phytotoxicity, which determined the toxicity of the hydrazide–hydrazones on seed germination and root growth, and (2) study on the behavior of seeds in the presence of the tested hydrazide–hydrazones and pathogens producing laccase (B. cinerea and S. sclerotiorum). The non-coated seeds of Linum usitatissimum, Helianthus annuus, and Brassica napus var. napus were provided by the Institute of Soil Science and Plant Cultivation, National Research Institute in Pulawy, Department of Weed Science and Tillage Systems, and Institute of Technology and Life Sciences–National Research Institute Falenty (Poland). Both phytotests were performed based on direct-contact microbiotests following the protocol recommended by the manufacturer (PhytotestkitTM, MicroBio Tests, Mariakerke, Belgium) with the authors’ modifications.
# The main phytotest equipment (Tigret, Warsaw, Poland) and general methods are described as follows. Test plates (21 × 15.5 × 0.8 cm) provide optimal moisture and enable observation of seed germination and data reading at the end of the test. A single plate is made of polyvinylchloride and composed of both a transparent bottom and a covering part that are stuck together by a set of press buttons. […] Such prepared wet support was covered with a black filter paper that soaked the solution and was applied for further testing.
# In the assay of phytotoxicity (1), the seeds of three dicota plants were used, namely ten seeds of flax or rapeseed and six seeds of sunflower. The seeds were transferred directly on the filter surface by placing them along the line at approximately 1 cm from the ridge at equal distances. Then, the seeds on the filter surface were covered with a covering part and placed in a holder.
# All test plates were put vertically in a special incubator to allow free germination and growth of roots at 25 °C through 5 days in the dark. The test was performed in triplicate for each test plant. The results were expressed as the germination index values (GI, Equation (2)) concerning the plant growth controls in water–ethanol solution for (1). […] The GI was calculated from the formula and categorized as an inhibition for GI values < 90%, as stimulation > 110%, and between 90 and 110% as non-toxic/no effect as proposed in the literature. (2) GI,%=Gs×Ls/Gc×Lc×100% where Gs is seed germination (%), Ls is root elongation (mm) for the test plate, and Gc and Lc are corresponding values for the control plates. Gc was calculated as the proportion of germinated seeds in the test in relation to the number of germinated seeds in the control. The control was the representative number of seeds that germinated on a medium with 0.5% (v/v) of ethanol.
# [5] = screening at basal 50 µg/mL, PDA medium, mean ± SD of three determinations
# [6] = Sclerotinia sclerotiorum, FSC10
# [7] = Sclerotinia sclerotiorum, FSC10, fungicidal profile, read-out: S. sclerotiorum inhibition
Structure (SMILES),Ki [1] [µM],"inhibition of growth at 50 µg/mL [2, 5] [%]","inhibition of growth at 50 µg/mL [3, 6] [%]","Germination index (GI), sunflower, test 1 [4]",inhibition at 50 µg/mL [2] [%],IC50 [2] [mg/L],"inhibition at 6.25 µg/mL [3, 7] [%]","inhibition at 12.5 µg/mL [3, 7] [%]","IC50 [3, 6] [mg/L]","fungal growth inhibition, S. sclerotiorum [3]","inhibition at 50 µg/mL ([3]; Sclerotinia sclerotiorum, FSC10, fungicidal profile, 50 µg/mL, read-out: S. sclerotiorum inhibition) [%]","fungal growth inhibition, C. unicolor [2, 5]"
COc1cc(/C=N/NC(=O)c2ccc(O)cc2)ccc1O [compound 17],251,11.9 ± 0.8,7.3 ± 2.1,,,,,,,,,
CC(C)(C)c1cccc(/C=N/NC(=O)c2ccc(O)cc2)c1O [compound 18],24,85.9 ± 2.1,97.1 ± 1.1,no effect,76.5,18.3,70.6 to 87.6,96.3,1.8,,,
O=C(N/N=C/c1cccc(-c2ccccc2)c1O)c1ccc(O)cc1 [compound 19],25.3,71.4 ± 2.1,50.6 ± 5.5,no effect,70.5,20.3,,,69.9,,,
Cc1cc(/C=N/NC(=O)c2ccc(O)cc2)c(O)c(CO)c1 [compound 25],≥ 1000,70.1 ± 1.8,,non-toxic,,,,,,n.o.,,
CC(C)(C)c1cc(/C=N/NC(=O)c2ccc(O)cc2)c(O)c(C(C)(C)C)c1 [compound 27],17.9,42.8 ± 2.2,85.5 ± 3.2,82%,,2190,82.9,,0.5,,93.1,
O=C(N/N=C/c1cc(O)ccc1O)c1ccc(O)cc1 [compound 13],,,,87%,,,,,,n.o.,,n.o.
Cc1cc(/C=N/NC(=O)c2ccc(O)cc2)c(O)c(C(C)(C)C)c1 [compound 30],26.4,89.8 ± 0.4,96.8 ± 2.2,67%,90.5,13.5,70.6 to 87.6,98.7,0.8,,,

# Reference: article PMC11124341, “4-Hydroxybenzoic Acid-Based Hydrazide–Hydrazones as Potent Growth Inhibition Agents of Laccase-Producing Phytopathogenic Fungi That Are Useful in the Protection of Oilseed Crops” (Molecules, 2024)
